The results in this text go back to patent publication US10669242B2 (priority 2016, dated 2020).

T1 sequence (P18177 1-543): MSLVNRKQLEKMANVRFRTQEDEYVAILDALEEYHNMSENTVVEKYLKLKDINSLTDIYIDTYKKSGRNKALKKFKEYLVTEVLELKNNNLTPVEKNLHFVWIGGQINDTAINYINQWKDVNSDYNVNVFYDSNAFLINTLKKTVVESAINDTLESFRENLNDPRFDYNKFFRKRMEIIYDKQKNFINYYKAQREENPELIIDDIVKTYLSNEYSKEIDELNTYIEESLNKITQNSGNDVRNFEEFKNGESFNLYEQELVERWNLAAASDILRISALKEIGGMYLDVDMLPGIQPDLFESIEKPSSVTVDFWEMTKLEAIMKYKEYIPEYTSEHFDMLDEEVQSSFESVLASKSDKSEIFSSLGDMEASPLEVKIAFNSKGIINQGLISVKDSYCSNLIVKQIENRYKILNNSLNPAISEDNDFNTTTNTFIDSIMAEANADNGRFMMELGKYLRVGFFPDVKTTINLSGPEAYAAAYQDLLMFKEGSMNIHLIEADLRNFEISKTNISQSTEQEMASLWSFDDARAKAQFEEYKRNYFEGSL

This assay addresses T1, recombinant glucosyltransferase domain of C. difficile Toxin B/TcdB (Clostridioides difficile, UniProt P18177).
T1 construct: 6-His (C); purchased R&D Systems 6246-GT
Briefly: biochemical.
For the compound `CN(C(=O)c1ccc(CN2C(=O)c3ccc(Cl)cc3NC(=O)[C@H]2Cc2cccnc2)cc1)c1ccccn1` [Example 4m, (R)-4-((8-chloro-2,5-dioxo-3-(pyridin-3-ylmethyl)-2,3-dihydro-1H-benzo[e][1,4]diazepin-4(5H)-yl)methyl)-N-methyl-N-(pyridin-2-yl)benzamide], the IC50 lay within 100 to 999 nM. For `COc1cnc(NC(=O)c2ccc(CN3C(=O)c4ccc(Cl)cc4NC(=O)[C@H]3Cc3cnccn3)cc2)nc1` [Example 5y, 4-((8-chloro-2,5-dioxo-3-(pyrazin-2-ylmethyl)-2,3-dihydro-1H-benzo[e][1,4]diazepin-4(5H)-yl)methyl)-N-(5-methoxypyrimidin-2-yl)benzamide] the value was under 100 nM; for `O=C1Nc2cc(Cl)ccc2C(=O)N(Cc2ccc(S(=O)(=O)Nc3ccccn3)cc2)[C@@H]1Cc1cccnc1` [Example 36a, (R)-4-((8-Chloro-2,5-dioxo-3-(pyridin-3-ylmethyl)-2,3-dihydro-1H-benzo[e][1,4]diazepin-4(5H)-yl)methyl)-N-(pyridin-2-yl)benzenesulfonamide], 1000 to 10000 nM; for `O=C(Nc1ccccn1)c1ccc(CN2C(=O)c3ccc(Cl)cc3NC(=O)[C@H]2Cc2ccccn2)cc1Cl` [Example 4cj, (R)-2-chloro-4-((8-chloro-2,5-dioxo-3-(pyridin-2-ylmethyl)-2,3-dihydro-1H-benzo[e][1,4]diazepin-4(5H)-yl)methyl)-N-(pyridin-2-yl)benzamide], under 100 nM. For `Cn1cc(C(=O)N2CCC(CN3C(=O)c4ccc(Cl)cc4NC(=O)[C@H]3Cc3ccccn3)CC2)c2ncccc21` [Example 43a, (R)-8-Chloro-4-((1-(1-methyl-1H-pyrrolo[3,2-b]pyridine-3-carbonyl)piperidin-4-yl)methyl)-3-(pyridin-2-ylmethyl)-3,4-dihydro-1H-benzo[e][1,4]diazepine-2,5-dione] the value was 1000 to 10000 nM; for `O=C(Nc1nncs1)c1ccc(CN2C(=O)c3ccc(Cl)cc3NC(=O)[C@H]2Cc2ccccn2)cc1` [Example 4bp, (R)-4-((8-chloro-2,5-dioxo-3-(pyridin-2-ylmethyl)-2,3-dihydro-1H-benzo[e][1,4]diazepin-4(5H)-yl)methyl)-N-(1,3,4-thiadiazol-2-yl)benzamide], 100 to 999 nM. Consider `C[C@@H]1C(=O)Nc2cc(Cl)ccc2C(=O)N1Cc1ccc(C(=O)O)cc1` [Example 3g], for which the IC50 lay within 10000 to 35000 nM. For `O=C1Nc2cc(Cl)ccc2C(=O)N(Cc2ccc(-n3cnc4cccnc4c3=O)cc2)[C@@H]1Cc1ccccn1` [Example 46a, (R)-8-Chloro-4-(4-(4-oxopyrido[3,2-c]pyrimidin-3(4H)-yl)benzyl)-3-(pyridin-2-ylmethyl)-3,4-dihydro-1H-benzo[e][1,4]diazepine-2,5-dione] the value was under 100 nM. For `Cc1ccc(NC(=O)c2ccc(CN3C(=O)c4ccc(Cl)cc4NC(=O)[C@H]3Cc3ccccn3)cc2F)nc1` [Example 6d, (R)-4-((8-chloro-2,5-dioxo-3-(pyridin-2-ylmethyl)-2,3-dihydro-1H-benzo[e][1,4]diazepin-4(5H)-yl)methyl)-2-fluoro-N-(5-methylpyridin-2-yl)benzamide] the value was under 100 nM; for `Cn1ccnc1C(=O)[C@H]1CC[C@H](CN2C(=O)c3ccc(Cl)cc3NC(=O)[C@H]2Cc2ccccn2)CC1` [Example 33c], 1000 to 10000 nM; for `Cc1ccc(NC(=O)c2ccc(CN3C(=O)c4ccc(NC(=O)c5ccccn5)cc4NC(=O)[C@H]3C)cc2)nc1` [Example 18d, (R)-N-(3-methyl-4-(4-((5-methylpyridin-2-yl)carbamoyl)benzyl)-2,5-dioxo-2,3,4,5-tetrahydro-1H-benzo[e][1,4]diazepin-8-yl)picolinamide], 10000 to 35000 nM.

Consider `Cc1cnc(NC(=O)[C@H]2CC[C@H](CN3C(=O)c4ccc(Cl)cc4NC(=O)[C@H]3Cc3ccccn3)CC2)cn1` [Example 4cf, (1R,4r)-4-(((R)-8-chloro-2,5-dioxo-3-(pyridin-2-ylmethyl)-2,3-dihydro-1H-benzo[e][1,4]diazepin-4(5H)-yl)methyl)-N-(5-methylpyrazin-2-yl)cyclohexanecarboxamide], for which the IC50 is under 100 nM. For `CC(C)c1ccc(NC(=O)c2ccc(CN3C(=O)c4ccc(Cl)cc4NC(=O)[C@H]3Cc3cccnc3)cc2)nc1` [Example 4at, (R)-4-((8-chloro-2,5-dioxo-3-(pyridin-3-ylmethyl)-2,3-dihydro-1H-benzo[e][1,4]diazepin-4(5H)-yl)methyl)-N-(5-isopropylpyridin-2-yl)benzamide] the value was under 100 nM; for `CN1CCN(c2ccc(NC(=O)c3ccc(CN4C(=O)c5ccc(Cl)cc5NC(=O)[C@H]4Cc4ccccn4)cc3)nc2)CC1` [Example 4ax, (R)-4-((8-chloro-2,5-dioxo-3-(pyridin-2-ylmethyl)-2,3-dihydro-1H-benzo[e][1,4]diazepin-4(5H)-yl)methyl)-N-(5-(4-methylpiperazin-1-yl)pyridin-2-yl)benzamide], under 100 nM; for `O=C(Nc1nccs1)c1ccc(CN2C(=O)c3ccc(Cl)cc3NC(=O)[C@H]2Cc2cccnc2)cc1` [Example 4c, (R)-4-((8-chloro-2,5-dioxo-3-(pyridin-3-ylmethyl)-2,3-dihydro-1H-benzo[e][1,4]diazepin-4(5H)-yl)methyl)-N-(thiazol-2-yl)benzamide], under 100 nM. For `O=C(Nc1ncccc1Cl)c1ccc(CN2C(=O)c3ccc(Cl)cc3NC(=O)[C@H]2Cc2cccnc2)cc1` [Example 5e, (R)-4-((8-chloro-2,5-dioxo-3-(pyridin-3-ylmethyl)-2,3-dihydro-1H-benzo[e][1,4]diazepin-4(5H)-yl)methyl)-N-(3-chloropyridin-2-yl)benzamide] the value was 100 to 999 nM; for `CC(=NO)NC(=O)c1ccc(CN2C(=O)c3ccc(Cl)cc3NC(=O)[C@H]2Cc2cccnc2)cc1` [Example 4bv, (R)-4-((8-chloro-2,5-dioxo-3-(pyridin-3-ylmethyl)-2,3-dihydro-1H-benzo[e][1,4]diazepin-4(5H)-yl)methyl)-N-(1-(hydroxyimino)ethyl)benzamide], 100 to 999 nM; for `COc1cnc(NC(=O)c2ccc(CN3C(=O)c4ccc(Cl)cc4NC(=O)[C@H]3Cc3cccnc3)cc2)nc1` [Example 5m, (R)-4-((8-chloro-2,5-dioxo-3-(pyridin-3-ylmethyl)-2,3-dihydro-1H-benzo[e][1,4]diazepin-4(5H)-yl)methyl)-N-(5-methoxypyrimidin-2-yl)benzamide], under 100 nM. For the compound `O=C(Nc1ccccn1)c1ccc(CN2C(=O)c3ccc([N+](=O)[O-])cc3NC(=O)[C@H]2Cc2ccc(Cl)c(Cl)c2)cc1` [Example 4ae, (R)-4-((3-(3,4-dichlorobenzyl)-8-nitro-2,5-dioxo-2,3-dihydro-1H-benzo[e][1,4]diazepin-4(5H)-yl)methyl)-N-(pyridin-2-yl)benzamide], the IC50 lay in the range of 100 to 999 nM. For `O=C1Nc2cc(Cl)ccc2C(=O)N(C[C@H]2CC[C@H](C(=O)O)CC2)[C@@H]1Cc1ccccn1` [Example 1j] the value was 10000 to 35000 nM. On to `CC(=O)NC(=O)c1ccc(CN2C(=O)c3ccc(Cl)cc3NC(=O)[C@H]2Cc2ccccn2)cc1` [Example 12a, (R)—N-Acetyl-4-((8-chloro-2,5-dioxo-3-(pyridin-2-ylmethyl)-2,3-dihydro-1H-benzo[e][1,4]diazepin-4(5H)-yl)methyl)benzamide], for which the half-inhibitory concentration (IC50) is under 100 nM. For `O=C(O)c1ccc(CN2C(=O)c3ccc(Cl)cc3NC(=O)[C@H]2Cc2ccccn2)cc1-c1ccc(Cl)cc1` [Example 8i, (R)-4′-chloro-5-((8-chloro-2,5-dioxo-3-(pyridin-2-ylmethyl)-2,3-dihydro-1H-benzo[e][1,4]diazepin-4(5H)-yl)methyl)-[1,1′-biphenyl]-2-carboxylic acid] the value was 100 to 999 nM; for `O=C(O)c1ccc(CN2C(=O)c3ccc(Cl)cc3NC(=O)[C@H]2Cc2ccncc2)cc1` [Example 1c], 10000 to 35000 nM. As for `O=C(O)c1ccc(CN2C(=O)c3ccc(Cl)cc3NC(=O)C2Cc2cnccn2)cc1` (centres unmarked) [Example 1l], the IC50 was 1000 to 10000 nM. For `O=C(Nc1ccc(C(F)(F)F)cn1)c1ccc(CN2C(=O)c3ccc(Cl)cc3NC(=O)[C@H]2Cc2ccccn2)cc1-c1ccc2c(c1)OCO2` [Example 5f, (R)-2-(benzo[d][1,3]dioxol-5-yl)-4-((8-chloro-2,5-dioxo-3-(pyridin-2-ylmethyl)-2,3-dihydro-1H-benzo[e][1,4]diazepin-4(5H)-yl)methyl)-N-(5-(trifluoromethyl)pyridin-2-yl)benzamide] the value was 100 to 999 nM; for `CC1C(=O)Nc2cc(Cl)ccc2C(=O)N1C1(c2ccc(C(=O)c3cccn4ccnc34)cc2)CC1` (stereo not drawn) [Example 50a, 8-Chloro-4-(1-(4-(imidazo[1,2-α]pyridine-8-carbonyl)phenyl)cyclopropyl)-3-methyl-3,4-dihydro-1H-benzo[e][1,4]diazepine-2,5-dione], 100 to 999 nM; for `O=C(Nc1ccccn1)c1ccc(CN2Cc3ccc(Cl)cc3NC(=O)[C@H]2Cc2ccccn2)cc1` [Example 20a, (R)-4-((8-Chloro-2-oxo-3-(pyridin-2-ylmethyl)-2,3-dihydro-1H-benzo[e][1,4]diazepin-4(5H)-yl)methyl)-N-(pyridin-2-yl)benzamide], 1000 to 10000 nM. For `O=C(Nc1ccncn1)c1ccc(CN2C(=O)c3ccc(Cl)cc3NC(=O)[C@H]2Cc2cccnc2)cc1` [Example 4t, (R)-4-((8-chloro-2,5-dioxo-3-(pyridin-3-ylmethyl)-2,3-dihydro-1H-benzo[e][1,4]diazepin-4(5H)-yl)methyl)-N-(pyrimidin-4-yl)benzamide] the value was under 100 nM.

Turning to `C[C@@H]1C(=O)Nc2cc(Cl)ccc2C(=O)N1Cc1ccc(C(=O)Nc2nc3ccccc3[nH]2)cc1` [Example 5p, (R)-N-(1H-benzo[d]imidazol-2-yl)-4-((8-chloro-3-methyl-2,5-dioxo-2,3-dihydro-1H-benzo[e][1,4]diazepin-4(5H)-yl)methyl)benzamide], the concentration for half-maximal inhibition (IC50) lay in the range of 1000 to 10000 nM.

For the compound `COc1cc(NC(=O)c2ccc(CN3C(=O)c4ccc(Cl)cc4NC(=O)[C@H]3Cc3cccnc3)cc2)ncn1` [Example 5j], the IC50 was under 100 nM. Turning to `O=C(O)c1ccc(CN2C(=O)c3ccc(Cl)cc3NC(=O)[C@H]2Cc2ccc(Cl)cc2)cc1` [Example 3e], the IC50 is 10000 to 35000 nM.

With `O=C(CO)Nc1cc(CN2C(=O)c3ccc(Cl)cc3NC(=O)[C@H]2Cc2ccccn2)ccc1C(=O)O` [Example 22o], the IC50 fell in the range of 100 to 999 nM.
